The target in data set [1] is T1, 5-hydroxytryptamine receptor 7 (Homo sapiens, UniProt P34969). As to the kind of experiment: Displacement of [3H]-5-HT from human 5-HT7 receptor expressed in CHOK1 cell membranes after 30 mins by liquid scintillation spectrometry. Background: Displacement assays read how much labelled ligand stays bound in the presence of the test substance.
Data set [2] has as its target T2, 5-hydroxytryptamine receptor 1A (Homo sapiens, UniProt P08908).
T2 sequence (P08908 whole entry): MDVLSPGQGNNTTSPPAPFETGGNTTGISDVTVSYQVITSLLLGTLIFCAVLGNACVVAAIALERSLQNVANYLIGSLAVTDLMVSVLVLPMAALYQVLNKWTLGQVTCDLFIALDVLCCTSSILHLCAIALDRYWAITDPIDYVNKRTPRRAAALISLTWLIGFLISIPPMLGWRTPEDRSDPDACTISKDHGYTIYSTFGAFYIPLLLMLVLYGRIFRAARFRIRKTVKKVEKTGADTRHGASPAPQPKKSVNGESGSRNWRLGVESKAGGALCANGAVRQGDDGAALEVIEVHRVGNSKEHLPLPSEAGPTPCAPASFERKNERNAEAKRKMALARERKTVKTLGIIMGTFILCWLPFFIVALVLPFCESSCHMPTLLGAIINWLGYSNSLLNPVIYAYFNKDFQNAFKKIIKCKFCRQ
As to the kind of experiment: Displacement of [3H]-8-OH-DPAT from human 5-HT1A receptor expressed in CHOK1 cell membranes after 30 mins by liquid scintillation spectrometry.

The target in data set [3] is T3, 5-hydroxytryptamine receptor 1A (Homo sapiens) (UniProt P08908).
T3 sequence (whole entry): T2 sequence (P08908 whole entry)
As to the kind of experiment: Displacement of [3H]-8-OH-DPAT from human 5-HT1A receptor expressed in CHOK1 cell membranes at 10^-5M after 30 mins by liquid scintillation spectrometry.

A short description of data set [4]: Dissociation constant, pKa of the compound at pH 7.4. The format is physicochemical.
Data set [5] has as its target T1, 5-hydroxytryptamine receptor 7. As to the kind of experiment: Displacement of [3H]-5-HT from human 5-HT7 receptor expressed in CHOK1 cell membranes at 10^-5M after 30 mins by liquid scintillation spectrometry.

T1 sequence (P34969 whole entry): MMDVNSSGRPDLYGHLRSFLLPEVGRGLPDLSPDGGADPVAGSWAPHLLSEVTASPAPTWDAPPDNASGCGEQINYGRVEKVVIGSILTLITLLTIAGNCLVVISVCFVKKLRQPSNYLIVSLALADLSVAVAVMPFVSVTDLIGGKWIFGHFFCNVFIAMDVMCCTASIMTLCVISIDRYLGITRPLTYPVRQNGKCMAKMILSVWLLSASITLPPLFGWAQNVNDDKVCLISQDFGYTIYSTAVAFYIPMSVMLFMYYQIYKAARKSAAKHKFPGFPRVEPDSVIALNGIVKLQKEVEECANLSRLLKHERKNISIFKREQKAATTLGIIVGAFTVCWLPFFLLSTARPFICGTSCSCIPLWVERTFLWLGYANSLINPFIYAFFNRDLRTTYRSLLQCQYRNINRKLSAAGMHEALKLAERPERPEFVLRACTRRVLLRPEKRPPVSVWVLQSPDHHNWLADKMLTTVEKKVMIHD

As usually defined, the Ki is the dissociation constant of the complex between target and ligand, obtained from inhibition or displacement. A high value points to weaker binding. Consider `O=C(CCNCc1ccccc1)NCc1ccccc1`, for which the inhibition constant Ki in data set [1] came out at 176 nM; in data set [2], 3750 nM.

Turning to `O=C(CCN1CCN(Cc2ccccc2)CC1)NCc1ccccc1`, the figures for the inhibitory constant (Ki) in data set [1] and in data set [2] were 4.34 nM and 0.34 nM, respectively.

In the case of `O=C(CCCCN1CCN(c2ccccc2)CC1)N1CCN(c2ccccc2)CC1`, the Ki in data set [1] worked out at 197 nM; in data set [2] it was 350 nM.

Regarding `CCOc1ccccc1N1CCN(CCC(=O)N2CCN(c3ccccc3)CC2)CC1`, the Ki was found to be 80.3 nM in data set [1] and 81.8 nM in data set [2].

The term inhibition denotes the change of the read-out against control, counted positive when it falls. The low end stands for a weak effect, the high end for a strong effect. `COc1ccccc1N1CCN(C(=O)CCN2CCN(Cc3ccccc3)CC2)CC1` displayed an inhibitory constant (Ki) in data set [1] of 24.2 nM. Moreover, the inhibition in data set [3] is less than 50%.

`O=C(CCN1CCN(c2ccc(Cl)cc2)CC1)N1CCN(c2ccccc2)CC1`: the Ki in data set [1] is 462 nM; in data set [2], 1680 nM.

For the compound `O=C(CCN1CCN(c2cccc(Cl)c2)CC1)N1CCN(c2ccccc2)CC1`, the Ki turned out to be 32.7 nM in data set [1] and 33.5 nM in data set [2].

As for `O=C(CCN1CCN(Cc2ccccc2)CC1)N1CCN(c2ccccn2)CC1`, the affinity in data set [1], expressed as Ki, was 29.5 nM. In data set [3], this compound returned an inhibition of less than 50%.

As to `O=C(CCN1CCN(c2ccc(Cl)cc2)CC1)N1CCN(c2cccc(Cl)c2)CC1`, the results for the Ki in data set [1] and in data set [2] were 2370 nM and 302 nM, respectively.

In the case of `O=C(CCN1CCN(Cc2ccccc2)CC1)N1CCN(c2ccc(Cl)cc2)CC1`, in data set [1], the Ki is 36.6 nM. The compound also came in with an inhibition in data set [3] of less than 50%.

A word on the pKa: it is the pH at which an ionisable group is half protonated. A high value points to a weaker acid or stronger base. `O=C(CCN1CCN(c2ccccc2)CC1)N1CCN(c2ccccc2)CC1`: the Ki turned out to be 26.2 nM in data set [1] and 272 nM in data set [2]. In addition, the pKa in data set [4] was determined as 8.11.

On to `O=C(CCN1CCN(Cc2ccccc2)CC1)N1CCN(c2ccccc2Cl)CC1`, for which the affinity in data set [1] corresponds to a Ki of 50.2 nM. The compound also displayed an inhibition in data set [3] of less than 50%.

Compound `O=C(CCN1CCN(Cc2ccccc2)CC1)N1CCN(c2ccccc2)CC1` gave a Ki in data set [1] of 52 nM. In addition, the pKa in data set [4] was 8.55. The same compound displayed an inhibition in data set [3] of less than 50%.

As to `O=C(CCN1CCN(c2ccccc2)CC1)N1CCN(c2cccc(Cl)c2)CC1`, the affinity in data set [2] corresponds to a Ki of 1070 nM. This compound had an inhibition in data set [5] of less than 50%.

Regarding `O=C(CCN1CCN(c2cccc(Cl)c2)CC1)N1CCN(c2cccc(Cl)c2)CC1`, the inhibition constant Ki came out at 2760 nM in data set [1] and 142 nM in data set [2].

In turn, `O=C(CCNCc1ccccc1)N1CCN(c2ccccc2)CC1` gave a Ki in data set [2] of 938 nM. In data set [5], this compound registered an inhibition of less than 50%.

Turning to `O=C(CCN1CCN(Cc2ccccc2)CC1)N1CCN(c2ncccn2)CC1`, the Ki in data set [1] is 23.5 nM. Besides, in data set [3], the inhibition is less than 50%.

For the compound `CCOc1ccccc1N1CCN(CCC(=O)N2CCN(c3cccc(Cl)c3)CC2)CC1`, the inhibition constant Ki was 119 nM in data set [1] and 15.2 nM in data set [2].

For `COc1ccc(N2CCN(C(=O)CCN3CCN(Cc4ccccc4)CC3)CC2)cc1`, the inhibition in data set [5] and in data set [3] was less than 50% throughout.

On to `O=C(CCN1CCN(Cc2ccccc2)CC1)N1CCN(c2cccc(Cl)c2)CC1`, for which the inhibitory constant (Ki) in data set [1] is 54.7 nM; in data set [2], 101 nM.

Source of the values: ChEMBL document CHEMBL4425143, “Design and synthesis of new homo and hetero bis-piperazinyl-1-propanone derivatives as 5-HT7R selective ligands over 5-HT1AR” (Bioorg Med Chem Lett, 2016).
